The values that follow come from patent US20180214428A1, “3-(1H-INDOL-2-YL)-1H-PYRAZOLO[3,4-B]PYRIDINES AND THERAPEUTIC USES THEREOF” (Samumed, LLC, priority 2015, published 2018).

This test concerns primary human mesenchymal stem cells (hMSCs). In words: Induction of chondrogenesis in primary human mesenchymal stem cells. The class given is cell-based. The conditions noted are these: Homo sapiens, Mesenchymal stem cells, 144 h, 6 days; for Emax: chondrogenic nodules, TGF-β3 (10 ng/mL) positive control, read-out: Max. Activity as % TGF-β3 activity; for EC50: concentration required to induce 50% levels of chondrogenesis vs TGF-β3, read-out: Conc (nM) of 50% TGF-β3 activity. The protocol:
Representative compounds were screened using primary human mesenchymal stem cells (hMSCs) to determine their ability to induce chondrogenesis (process by which cartilage is developed).
Primary human mesenchymal stem cells (hMSCs) were purchased from Lonza (Walkersville, Md.) and expanded in Mesenchymal Stem Cell Growth Media (Lonza). Cells between passage 3 and 6 were used for the experiments.
Each compound was dissolved in DMSO as a 10 mM stock and used to prepare compound source plates. Serial dilution (1:3, 6-point dose-response curves from 2700 nM to 10 nM) and compound transfer was performed using the ECHO 550 (Labcyte, Sunnyvale, Calif.) into 96-well clear bottom assay plates (Greiner Bio-One) with appropriate DMSO backfill for a final DMSO concentration of 0.03%. hMSCs were plated at 20,000 cells/well in 250 μL/well Incomplete Chondrogenic Induction Medium (Lonza; DMEM, dexamethasone, ascorbate, insulin-transferrin-selenium [ITS supplement], gentamycin-amphotericin [GA-1000], sodium pyruvate, proline and L-glutamine). TGF-β3 (10 ng/mL) was used as a positive control for differentiation while negative control wells were treated with 75 nL DMSO for normalization and calculating EC50 values. Cells were incubated at 37° C. and 5% CO2 for 6 days. To image chondrogenic nodules, the cells were fixed using 4% formaldehyde (Electron Microscopy Sciences), and stained with 2 μg/mL Rhodamine B (Sigma-Aldrich) and 20 μM Nile Red (Sigma-Aldrich) [Johnson K., et. al, A Stem Cell-Based Approach to Cartilage Repair, Science, (2012). 336(6082), 717-721]. The nodules imaged (4 images per well at 4× magnification) by excitation at 531 nm and emission at 625 nm and quantified using the CellInsight CX5 (Thermo Scientific). Number of nodules in each well was normalized to the average of 3 DMSO treated wells on the same plate using Excel (Microsoft Inc.). The normalized averages (fold change over DMSO) of 3 replicate wells for each compound concentration were calculated. Due to solubility limitations of some of the compounds, curve fitting was incomplete leading to inaccurate EC50 determinations.
Using TGF-β3 as a positive control, the concentration of representative compounds required to induce 50% levels of chondrogenesis is reported. In addition, the maximum activity of each compound and the respective dose that each compound reached maximum chondrogenesis activity is reported.

Turning to `O=C(Nc1cncc(-c2cnc3[nH]nc(-c4cc5c(-c6ccccn6)cccc5[nH]4)c3c2)c1)c1ccccc1` [Compound 128, N-(5-(3-(4-(Pyridin-2-yl)-1H-indol-2-yl)-1H-pyrazolo[3,4-b]pyridin-5-yl)pyridin-3-yl)benzamide], the Emax turned out to be 565% and the EC50 came to 300 nM.
For `Fc1ccc(-c2cccc3[nH]c(-c4n[nH]c5ncc(-c6cncc(CN7CCCCC7)c6)cc45)cc23)cc1` [Compound 36, 3-(4-(4-Fluorophenyl)-1H-indol-2-yl)-5-(5-(piperidin-1-ylmethyl)pyridin-3-yl)-1H-pyrazolo[3,4-b]pyridine], in that order: 67% and 10 nM.
On to `c1cncc(-c2cccc3[nH]c(-c4n[nH]c5ncc(-c6cncc(CN7CCCCC7)c6)cc45)cc23)c1` [Compound 84, 5-(5-(Piperidin-1-ylmethyl)pyridin-3-yl)-3-(4-(pyridin-3-yl)-1H-indol-2-yl)-1H-pyrazolo[3,4-b]pyridine], for which the Emax turned out to be 82% and the EC50 was 900 nM.
For `CCCC(=O)Nc1cncc(-c2cnc3[nH]nc(-c4cc5ccccc5[nH]4)c3c2)c1` [Compound 243, N-(5-(3-(1H-Indol-2-yl)-1H-pyrazolo[3,4-b]pyridin-5-yl)pyridin-3-yl) butyramide], the Emax came to 28%.
In the case of `CC(C)Nc1cncc(-c2cnc3[nH]nc(-c4cc5c(-c6cccnc6)cccc5[nH]4)c3c2)c1` [Compound 81, N-Isopropyl-5-(3-(4-(pyridin-3-yl)-1H-indol-2-yl)-1H-pyrazolo[3,4-b]pyridin-5-yl)pyridin-3-amine], the Emax is 264% and the EC50 worked out at 10 nM.
As to `CN(C)CCNc1cc(F)cc(-c2cccc3[nH]c(-c4n[nH]c5ncc(-c6cncc(OC7CCCCC7)c6)cc45)cc23)c1` [Compound 785, N^1-(3-(2-(5-(5-(Cyclohexyloxy)pyridin-3-yl)-1H-pyrazolo[3,4-b]pyridin-3-yl)-1H-indol-4-yl)-5-fluorophenyl)-N^2,N^2-dimethylethane-1,2-diamine], the Emax was 147% and the EC50 amounted to 30 nM.
For `CN(C)CCNc1cc(F)cc(-c2cccc3[nH]c(-c4n[nH]c5ncc(-c6cncc(N)c6)cc45)cc23)c1` [Compound 425, N^1-(3-(2-(5-(5-Aminopyridin-3-yl)-1H-pyrazolo[3,4-b]pyridin-3-yl)-1H-indol-4-yl)-5-fluorophenyl)-N^2,N^2-dimethylethane-1,2-diamine], in that order: 101% and 900 nM.
In the case of `c1cncc(-c2cnc3[nH]nc(-c4cc5c(-c6cccnc6)cccc5[nH]4)c3c2)c1` [Compound 74, 5-(Pyridin-3-yl)-3-(4-(pyridin-3-yl)-1H-indol-2-yl)-1H-pyrazolo[3,4-b]pyridine], the Emax was determined as 29%.
On the same count and under the same terms, the figure for `CN(C)CCNc1cc(F)cc(-c2cccc3[nH]c(-c4n[nH]c5ncc(-c6cncnc6)cc45)cc23)c1` [Compound 449, N^1-(3-Fluoro-5-(2-(5-(pyrimidin-5-yl)-1H-pyrazolo[3,4-b]pyridin-3-yl)-1H-indol-4-yl)phenyl)-N^2,N^2-dimethylethane-1,2-diamine] is 17%.
Regarding `CN(C)CCNc1cc(F)cc(-c2cccc3[nH]c(-c4n[nH]c5ncc(-c6cncc(NC(=O)C7CCC7)c6)cc45)cc23)c1` [Compound 443, N-(5-(3-(4-(3-((2-(Dimethylamino)ethyl)amino)-5-fluorophenyl)-1H-indol-2-yl)-1H-pyrazolo[3,4-b]pyridin-5-yl)pyridin-3-yl)cyclobutanecarboxamide], the Emax is 78% and the EC50 came to 100 nM.
Turning to `CC(C)(C)C(=O)Nc1cncc(-c2cnc3[nH]nc(-c4cc5c(-c6cccnc6)cccc5[nH]4)c3c2)c1` [Compound 78, N-(5-(3-(4-(Pyridin-3-yl)-1H-indol-2-yl)-1H-pyrazolo[3,4-b]pyridin-5-yl)pyridin-3-yl)pivalamide], the Emax came to 232% and the EC50 was found to be 300 nM.
Turning to `CCNCc1cncc(-c2cnc3[nH]nc(-c4cc5c(-c6ccccc6F)cccc5[nH]4)c3c2)c1` [Compound 52, N-((5-(3-(4-(2-Fluorophenyl)-1H-indol-2-yl)-1H-pyrazolo[3,4-b]pyridin-5-yl)pyridin-3-yl)methyl)ethanamine], the Emax turned out to be 64%.
On to `CCNCc1cncc(-c2cnc3[nH]nc(-c4cc5c(N6CCCCC6)cccc5[nH]4)c3c2)c1` [Compound 150, N-((5-(3-(4-(Piperidin-1-yl)-1H-indol-2-yl)-1H-pyrazolo[3,4-b]pyridin-5-yl)pyridin-3-yl)methyl)ethanamine], for which the Emax worked out at 91% and the EC50 is 30 nM.
With `Cc1ncc(-c2cnc3[nH]nc(-c4cc5ccccc5[nH]4)c3c2)n1C` [Compound 655, 5-(1,2-Dimethyl-1H-imidazol-5-yl)-3-(1H-indol-2-yl)-1H-pyrazolo[3,4-b]pyridine], the Emax was 47%.
`Nc1cncc(-c2cnc3[nH]nc(-c4cc5c(-c6ccccn6)cccc5[nH]4)c3c2)c1` [Compound 121, 5-(3-(4-(Pyridin-2-yl)-1H-indol-2-yl)-1H-pyrazolo[3,4-b]pyridin-5-yl) pyridin-3-amine]: the Emax is 117% and the EC50 amounted to 900 nM.
With `CC(C)Nc1cncc(-c2cnc3[nH]nc(-c4cc5c(-c6cc(F)cc(NCCN(C)C)c6)cccc5[nH]4)c3c2)c1` [Compound 434, N^1-(3-Fluoro-5-(2-(5-(5-(isopropylamino)pyridin-3-yl)-1H-pyrazolo[3,4-b]pyridin-3-yl)-1H-indol-4-yl)phenyl)-N^2,N^2-dimethylethane-1,2-diamine], the Emax amounted to 56%.
Consider `CN(C)Cc1cncc(-c2cnc3[nH]nc(-c4cc5c(-c6cc(F)cc(CNS(C)(=O)=O)c6)cccc5[nH]4)c3c2)c1` [Compound 463, N-(3-(2-(5-(5-((Dimethylamino)methyl)pyridin-3-yl)-1H-pyrazolo[3,4-b]pyridin-3-yl)-1H-indol-4-yl)-5-fluorobenzyl)methane sulfonamide], for which the Emax turned out to be 65% and the EC50 was determined as 100 nM.
With `c1ccc(-c2cccc3[nH]c(-c4n[nH]c5ncc(-c6cncnc6)cc45)cc23)nc1` [Compound 143, 3-(4-(Pyridin-2-yl)-1H-indol-2-yl)-5-(pyrimidin-5-yl)-1H-pyrazolo[3,4-b]pyridine], the Emax turned out to be 25%.
Regarding `Fc1ccc(-c2cccc3[nH]c(-c4n[nH]c5ncc(-c6cncnc6)cc45)cc23)cc1` [Compound 47, 3-(4-(4-Fluorophenyl)-1H-indol-2-yl)-5-(pyrimidin-5-yl)-1H-pyrazolo[3,4-b]pyridine], the Emax stood at 135% and the EC50 was found to be 10 nM.
Consider `Fc1ccc(-c2cccc3[nH]c(-c4n[nH]c5ncc(-c6cncc(CN7CCCC7)c6)cc45)cc23)cc1` [Compound 35, 3-(4-(4-Fluorophenyl)-1H-indol-2-yl)-5-(5-(pyrrolidin-1-ylmethyl)pyridin-3-yl)-1H-pyrazolo[3,4-b]pyridine], for which the Emax stood at 160% and the EC50 came to 10 nM.
In the case of `O=C(CC1CCNCC1)Nc1cncc(-c2cnc3[nH]nc(-c4cc5c(-c6ccccn6)cccc5[nH]4)c3c2)c1` [Compound 595, 2-(Piperidin-4-yl)-N-(5-(3-(4-(pyridin-2-yl)-1H-indol-2-yl)-1H-pyrazolo[3,4-b]pyridin-5-yl)pyridin-3-yl)acetamide], the Emax worked out at 79%.
`FC1(F)CCN(Cc2cncc(-c3cnc4[nH]nc(-c5cc6c(-c7ccoc7)cccc6[nH]5)c4c3)c2)C1` [Compound 308, 5-(5-((3,3-Difluoropyrrolidin-1-yl)methyl)pyridin-3-yl)-3-(4-(furan-3-yl)-1H-indol-2-yl)-1H-pyrazolo[3,4-b]pyridine]: the Emax came out at 72% and the EC50 was 30 nM.
Consider `CN(C)CCNc1cc(F)cc(-c2cccc3[nH]c(-c4n[nH]c5ncc(-c6cncc(CN7CCCCC7)c6)cc45)cc23)c1` [Compound 437, N^1-(3-Fluoro-5-(2-(5-(5-(piperidin-1-ylmethyl)pyridin-3-yl)-1H-pyrazolo[3,4-b]pyridin-3-yl)-1H-indol-4-yl)phenyl)-N^2,N^2-dimethylethane-1,2-diamine], for which the Emax is 175% and the EC50 was found to be 900 nM.
For `O=C(Nc1cncc(-c2cnc3[nH]nc(-c4cc5c(-c6cccnc6)cccc5[nH]4)c3c2)c1)C1CCC1` [Compound 89, N-(5-(3-(4-(Pyridin-3-yl)-1H-indol-2-yl)-1H-pyrazolo[3,4-b]pyridin-5-yl)pyridin-3-yl)cyclobutanecarboxamide], the Emax came out at 41%.
